According to patent publication US8466107B2, “Fibrin-binding peptides and conjugates thereof” (Bracco Imaging SpA, priority 2006, dated 2013):
Bridge positions count the residues as written; N and C are the ends. Square brackets hold non-standard residues; d marks the D form. Peptide text beside a SMILES is read from it. * marks the point of attachment. 5FAM = O=C1OC2(c3ccc(O)cc3Oc3cc(O)ccc32)c2ccc(C(=O)*)cc21; Cha = N[C@@H](CC1CCCCC1)C(=O)O; AEEA = NCCOCCOCC(=O)O

Target: DDE (fibrin-derived polypeptide) (Homo sapiens, UniProt P02671+P02675+P02679)
Sequence (P02671 124-216): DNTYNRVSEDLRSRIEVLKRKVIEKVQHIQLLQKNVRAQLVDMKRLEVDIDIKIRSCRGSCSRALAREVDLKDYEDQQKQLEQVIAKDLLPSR
Sequence (P02675 164-491): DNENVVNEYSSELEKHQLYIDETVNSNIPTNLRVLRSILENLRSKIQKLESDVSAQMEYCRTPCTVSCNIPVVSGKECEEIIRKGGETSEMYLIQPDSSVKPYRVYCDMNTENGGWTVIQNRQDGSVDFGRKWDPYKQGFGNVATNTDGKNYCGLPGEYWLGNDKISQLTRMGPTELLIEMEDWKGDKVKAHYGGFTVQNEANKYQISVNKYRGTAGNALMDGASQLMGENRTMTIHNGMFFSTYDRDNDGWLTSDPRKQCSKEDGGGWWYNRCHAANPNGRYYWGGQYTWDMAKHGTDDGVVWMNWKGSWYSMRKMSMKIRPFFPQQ
Sequence (P02679 114-432): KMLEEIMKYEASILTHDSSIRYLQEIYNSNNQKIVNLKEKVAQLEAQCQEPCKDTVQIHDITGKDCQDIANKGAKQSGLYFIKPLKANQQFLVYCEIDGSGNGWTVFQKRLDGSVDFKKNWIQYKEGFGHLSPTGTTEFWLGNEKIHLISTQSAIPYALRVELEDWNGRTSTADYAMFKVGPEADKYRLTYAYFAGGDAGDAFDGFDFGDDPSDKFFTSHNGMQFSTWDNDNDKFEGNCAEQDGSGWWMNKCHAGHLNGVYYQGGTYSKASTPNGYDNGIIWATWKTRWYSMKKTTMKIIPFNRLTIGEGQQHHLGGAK
Sequence (P02671 36-97): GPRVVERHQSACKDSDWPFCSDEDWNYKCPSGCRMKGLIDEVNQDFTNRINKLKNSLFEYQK
Sequence (P02675 45-152): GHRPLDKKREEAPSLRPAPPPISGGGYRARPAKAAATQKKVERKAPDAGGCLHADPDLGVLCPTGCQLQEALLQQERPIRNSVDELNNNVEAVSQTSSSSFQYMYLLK
Sequence (P02679 27-88): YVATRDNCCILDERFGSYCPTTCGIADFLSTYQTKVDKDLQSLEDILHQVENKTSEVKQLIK
Experiment: Direct binding fluorescence polarization (FP) assay using 5-carboxyfluorescein labeled peptides
Conditions: 20 nM CF5-labeled peptide, serial dilutions of DDE, anisotropy read at 485 nm; read-out: KD (μM) Direct Binding (n = 2)
Experimental: Assay of Fibrin Binding Peptides by Direct Binding Fluorescence Polarization (FP) Procedure using 5-Carboxyfluoresein Labeled Peptides
Protocol • 1. Prepare 1 mL of 40 nM solution of 5-carboxyfluorescein-labeled peptide in HEPES dilution buffer (HDB) with 0.01% Tween. • HDB (10 mM HEPES, 150 mM […], 2 mM CaCl2) • 2. Dilute the 40 nM solution to obtain 1 ml of a 20 nM solution of the test 5-carboxyfluorescein-labeled peptide. • 3. Prepare a solution of DDE at a concentration that will be approximately 5-10 fold greater than the expected KD. For the described assay an 8 μM concentration of DDE was prepared. • 4. Mix equal volumes of the DDE solution with the 40 nM peptide solution. • 5. Prepare serial dilutions of DDE in a solution consisting of the binding buffer with 0.01% Tween20 and 20 nM of the 5-carboxyfluorescein-labeled peptide. • 6. Make dilutions as shown in the following table in a Labsystems 384-well microplate and mix by repeated aspiration and dispensing of the solution into the wells. • 7. Centrifuge the plate at 2000 RPM for 5 minutes to remove air pockets in the wells. • 8. Read in Tecan Polarion Plate Reader at 485 nm to obtain the anisotropy value.
The anisotropy (in mP—millipolarization units) vs the logarithm of the concentration (micromoles/liter) of the receptor concentration is graphed. The dissociation constant is obtained at the midpoint of the curve whose extrema are Afree and Abound where Afree is the anisotropy of the free peptide and Abound is the anisotropy of the fully bound peptide. The theory, methods of operation and mathematical analysis is described in, for example, the following reference: Fluorescence Polarization Technical Resource Guide Technical Resource Guide 4th Edn. Invitrogen Corporation•501 Charmany Drive•Madison, Wis. 53719 USA. Particularly, the mathematical analysis of the data and obtaining binding constants is described in Chapter 8: Analysis of FP Binding Data pp 8-2-8-7.

CC(=O)N[C@@H](CO)C(=O)NCC(=O)N[C@@H](CO)C(=O)NCC(=O)NCCOCCOCC(=O)N[C@@H](Cc1c[nH]c2ccccc12)C(=O)N[C@@H](CCC(N)=O)C(=O)N1CCC[C@H]1C(=O)N[C@H]1CSSC[C@@H](C(=O)N[C@@H](Cc2c[nH]c3ccccc23)C(=O)N[C@@H](CC(=O)O)C(=O)N2CCC[C@H]2C(=O)NCC(=O)NCC(=O)NCC(=O)N[C@@H](CCCCNC(=O)c2ccc3c(c2)C(=O)OC32c3ccc(O)cc3Oc3cc(O)ccc32)C(N)=O)NC(=O)[C@H](Cc2ccccc2)NC(=O)[C@H]([C@@H](C)O)NC(=O)[C@H](Cc2c[nH]c3ccccc23)NC(=O)[C@H](CO)NC(=O)[C@H](CCC(=O)O)NC(=O)[C@H](C)NC(=O)[C@@H]2CCCN2C1=O [Seq045-CF5] (Ac-SGSG[AEEA]WQPCPAESWTFCWDPGGGK(5FAM)-NH2; disulfide 9-17)
Kd: 0.57 µM

CC(=O)NCC(=O)NCC(=O)N[C@@H](CCCNC(=N)N)C(=O)NCC(=O)N[C@@H](Cc1c[nH]c2ccccc12)C(=O)N[C@@H](CCC(N)=O)C(=O)N1CCC[C@H]1C(=O)N[C@H]1CSSC[C@@H](C(=O)N[C@@H](Cc2c[nH]c3ccccc23)C(=O)N[C@@H](CC(=O)O)C(=O)N2CCC[C@H]2C(=O)NCC(=O)NCC(=O)NCC(=O)N[C@@H](CCCCNC(=O)c2ccc3c(c2)C(=O)OC32c3ccc(O)cc3Oc3cc(O)ccc32)C(N)=O)NC(=O)[C@H](Cc2ccccc2)NC(=O)[C@H]([C@@H](C)O)NC(=O)[C@H](Cc2c[nH]c3ccccc23)NC(=O)[C@H](CO)NC(=O)[C@H](CCC(=O)O)NC(=O)[C@H](C)NC(=O)[C@@H]2CCCN2C1=O [Seq035-CF5] (Ac-GGRGWQPCPAESWTFCWDPGGGK(5FAM)-NH2; disulfide 8-16)
Kd: 0.52 µM

CC(=O)N[C@@H](CO)C(=O)NCC(=O)N[C@@H](CO)C(=O)NCC(=O)NCCOCCOCC(=O)N[C@@H](Cc1c[nH]c2ccccc12)C(=O)N[C@@H](CCC(N)=O)C(=O)N1CCC[C@H]1C(=O)N[C@H]1CSSC[C@@H](C(=O)N[C@@H](Cc2c[nH]c3ccccc23)C(=O)N[C@@H](CC(=O)O)C(=O)N2CCC[C@H]2C(=O)NCC(=O)NCC(=O)NCC(=O)N[C@@H](CCCCNC(=O)c2ccc3c(c2)C(=O)OC32c3ccc(O)cc3Oc3cc(O)ccc32)C(N)=O)NC(=O)[C@H](Cc2ccccc2)NC(=O)[C@H]([C@@H](C)O)NC(=O)[C@H](Cc2c[nH]c3ccccc23)NC(=O)[C@H](CO)NC(=O)[C@H](CCC(=O)O)NC(=O)[C@H](Cc2c[nH]c3ccccc23)NC(=O)[C@@H]2CCCN2C1=O [Seq017-CF5] (Ac-SGSG[AEEA]WQPCPWESWTFCWDPGGGK(5FAM)-NH2; disulfide 9-17)
Kd: 0.45 µM

CC(=O)NCC(=O)N[C@@H](Cc1c[nH]c2ccccc12)C(=O)N[C@@H](CCC(N)=O)C(=O)N1CCC[C@H]1C(=O)N[C@H]1CSSC[C@@H](C(=O)N[C@@H](Cc2c[nH]c3ccccc23)C(=O)N[C@@H](CC(=O)O)C(=O)N2CCC[C@H]2C(=O)NCC(=O)NCC(=O)NCC(=O)N[C@@H](CCCCNC(=O)c2ccc3c(c2)C(=O)OC32c3ccc(O)cc3Oc3cc(O)ccc32)C(N)=O)NC(=O)[C@H](Cc2ccccc2)NC(=O)[C@H]([C@@H](C)O)NC(=O)[C@H](Cc2c[nH]c3ccccc23)NC(=O)[C@H](CO)NC(=O)[C@H](CCC(=O)O)NC(=O)[C@H](Cc2c[nH]c3ccccc23)NC(=O)[C@@H]2CCCN2C1=O [Seq016-CF5] (Ac-GWQPCPWESWTFCWDPGGGK(5FAM)-NH2; disulfide 5-13)
Kd: 0.23 µM

CC(=O)N[C@@H](CCCCN)C(=O)NCC(=O)N[C@@H](CCCCN)C(=O)NCC(=O)N[C@@H](CCCCN)C(=O)NCC(=O)N[C@@H](Cc1c[nH]c2ccccc12)C(=O)N[C@@H](CCC(N)=O)C(=O)N1CCC[C@H]1C(=O)N[C@H]1CSSC[C@@H](C(=O)N[C@@H](Cc2c[nH]c3ccccc23)C(=O)N[C@@H](CC(=O)O)C(=O)N2CCC[C@H]2C(=O)NCC(=O)NCC(=O)NCC(=O)N[C@@H](CCCCNC(=O)c2ccc3c(c2)C(=O)OC32c3ccc(O)cc3Oc3cc(O)ccc32)C(N)=O)NC(=O)[C@H](Cc2ccccc2)NC(=O)[C@H]([C@@H](C)O)NC(=O)[C@H](Cc2c[nH]c3ccccc23)NC(=O)[C@H](CO)NC(=O)[C@H](CCC(=O)O)NC(=O)[C@H](Cc2c[nH]c3ccccc23)NC(=O)[C@@H]2CCCN2C1=O [Seq026-CF5] (Ac-KGKGKGWQPCPWESWTFCWDPGGGK(5FAM)-NH2; disulfide 10-18)
Kd: 0.76 µM

CC(=O)N[C@@H](Cc1c[nH]c2ccccc12)C(=O)N[C@@H](CCC(N)=O)C(=O)N1CCC[C@H]1C(=O)N[C@H]1CSSC[C@@H](C(=O)N[C@@H](Cc2c[nH]c3ccccc23)C(=O)N[C@@H](CC(=O)O)C(=O)N2CCC[C@H]2C(=O)NCC(=O)NCC(=O)NCC(=O)N[C@@H](CCCCNC(=O)c2ccc3c(c2)C(=O)OC32c3ccc(O)cc3Oc3cc(O)ccc32)C(N)=O)NC(=O)[C@H](Cc2ccccc2)NC(=O)[C@H]([C@@H](C)O)NC(=O)[C@H](Cc2c[nH]c3ccccc23)NC(=O)[C@H](CO)NC(=O)[C@H](CCC(=O)O)NC(=O)[C@H](Cc2c[nH]c3ccccc23)NC(=O)[C@@H]2CCCN2C1=O [Seq000-CF5, reference compound] (Ac-WQPCPWESWTFCWDPGGGK(5FAM)-NH2; disulfide 4-12)
Kd: 0.39 µM

C[C@@H]1NC(=O)[C@@H]2CCCN2C(=O)[C@@H](NC(=O)[C@@H]2CCCN2C(=O)[C@H](CCC(N)=O)NC(=O)[C@H](Cc2c[nH]c3ccccc23)NC(=O)CN)CSSC[C@@H](C(=O)N[C@@H](Cc2c[nH]c3ccccc23)C(=O)N[C@@H](CC(=O)O)C(=O)N2CCC[C@H]2C(=O)NCC(=O)NCC(=O)NCC(=O)N[C@@H](CCCCNC(=O)c2ccc3c(c2)C(=O)OC32c3ccc(O)cc3Oc3cc(O)ccc32)C(N)=O)NC(=O)[C@H](Cc2ccccc2)NC(=O)[C@H]([C@@H](C)O)NC(=O)[C@H](Cc2c[nH]c3ccccc23)NC(=O)[C@H](CO)NC(=O)[C@H](CCC(=O)O)NC1=O [Seq038-CF5] (H-GWQPCPAESWTFCWDPGGGK(5FAM)-NH2; disulfide 5-13; N-terminus assumed)
Kd: 0.24 µM

CC(=O)N[C@@H](Cc1c[nH]c2ccccc12)C(=O)N[C@@H](CCC(N)=O)C(=O)N1CCC[C@H]1C(=O)N[C@H]1CSSC[C@@H](C(=O)N[C@@H](Cc2c[nH]c3ccccc23)C(=O)N[C@@H](CC(=O)O)C(=O)N2CCC[C@H]2C(=O)NCC(=O)NCC(=O)NCC(=O)N[C@@H](CCCCNC(=O)c2ccc3c(c2)C(=O)OC32c3ccc(O)cc3Oc3cc(O)ccc32)C(N)=O)NC(=O)[C@H](CC2CCCCC2)NC(=O)[C@H]([C@@H](C)O)NC(=O)[C@H](Cc2c[nH]c3ccccc23)NC(=O)[C@H](CO)NC(=O)[C@H](CCC(=O)O)NC(=O)[C@H](Cc2c[nH]c3ccccc23)NC(=O)[C@@H]2CCCN2C1=O [Seq018-CF5, Ac-WQPC*PWESWT-Cha-C*WDPGGGK(CF5)-NH2] (Ac-WQPCPWESWT[Cha]CWDPGGGK(5FAM)-NH2; disulfide 4-12)
Kd: 0.2 µM

CC(=O)N[C@@H](CCCNC(=N)N)C(=O)NCC(=O)N[C@@H](Cc1c[nH]c2ccccc12)C(=O)N[C@@H](CCC(N)=O)C(=O)N1CCC[C@H]1C(=O)N[C@H]1CSSC[C@@H](C(=O)N[C@@H](Cc2c[nH]c3ccccc23)C(=O)N[C@@H](CC(=O)O)C(=O)N2CCC[C@H]2C(=O)NCC(=O)NCC(=O)NCC(=O)N[C@@H](CCCCNC(=O)c2ccc3c(c2)C(=O)OC32c3ccc(O)cc3Oc3cc(O)ccc32)C(N)=O)NC(=O)[C@H](CC2CCCCC2)NC(=O)[C@H]([C@@H](C)O)NC(=O)[C@H](Cc2c[nH]c3ccccc23)NC(=O)[C@H](CO)NC(=O)[C@H](CCC(=O)O)NC(=O)[C@H](C)NC(=O)[C@@H]2CCCN2C1=O [Seq053-CF5, Ac-RGWQPC*PAESWT-Cha-C*WDPGGGK(CF5)-NH2] (Ac-RGWQPCPAESWT[Cha]CWDPGGGK(5FAM)-NH2; disulfide 6-14)
Kd: 0.1 µM

CC(=O)N[C@@H](CCCNC(=N)N)C(=O)N[C@@H](Cc1c[nH]c2ccccc12)C(=O)N[C@@H](CCC(N)=O)C(=O)N1CCC[C@H]1C(=O)N[C@H]1CSSC[C@@H](C(=O)N[C@@H](Cc2c[nH]c3ccccc23)C(=O)N[C@@H](CC(=O)O)C(=O)N2CCC[C@H]2C(=O)NCC(=O)NCC(=O)NCC(=O)N[C@@H](CCCCNC(=O)c2ccc3c(c2)C(=O)OC32c3ccc(O)cc3Oc3cc(O)ccc32)C(N)=O)NC(=O)[C@H](CC2CCCCC2)NC(=O)[C@H]([C@@H](C)O)NC(=O)[C@H](Cc2c[nH]c3ccccc23)NC(=O)[C@H](CO)NC(=O)[C@H](CCC(=O)O)NC(=O)[C@H](C)NC(=O)[C@@H]2CCCN2C1=O [Seq050-CF5, Ac-RWQPC*PAESWT-Cha-C*WDPGGGK(CF5)-NH2] (Ac-RWQPCPAESWT[Cha]CWDPGGGK(5FAM)-NH2; disulfide 5-13)
Kd: 0.08 µM
